From patent EP0837085A1, “POLYCARBONATE-BASE POLYMER, PRODUCTION PROCESS, RESIN COATING FLUID PREPARED THEREFROM, AND ELECTROPHOTOGRAPHIC PHOTORECEPTOR PREPARED THEREFROM” (IDEMITSU KOSAN COMPANY LIMITED, priority 1994, dated 1996) come the findings set out here.

The nature of data set [1]: physchem.
Description: (§1) An ordinary acid, which is represented by HA, in water is in an equilibrium state as shown below. HA + H2 O ⇄ H3 O^+ (+ A)^- [formula] Equilibrium constant Keq is calculated as follows. Keq =([H3 O^+ (] [A)^- ])/([HA] [H2 O]) [formula] wherein [ ] represents the concentration of each chemical species.
(§2) In ordinary diluted solutions, the concentration of water [H2O] hardly changes and is constantly 55.5M, and the equilibrium constant Keq can be converted into another equation, to show the following acidity constant Ka. Ka =(([A)^- ] [H3 O^+ ])/([HA]) [formula]
Data set [2] is described as follows: pKa of the starting alcohol, in water at 25°C.
Description: as §1, §2

`OCC(F)(F)C(F)(F)C(F)(F)CO` [2,2,3,3,4,4-hexafluoro-1,5-pentanediol]: the pKa in data set [1] stood at 11.
`OCC(F)(F)C(F)(F)C(F)(F)C(F)(F)CO` [1H,1H,6H,6H-perfluoro-1,6-hexanediol] showed a pKa in data set [2] of 11.
In data set [2], `OC(C(F)(F)F)C(F)(F)F` showed a pKa of 5.
With `OCC(F)(F)F` [2,2,2-trifluoroethanol], the pKa in data set [1] (water) was determined as 11.
On to `OCCCCCO` [1,5-pentanediol, reference compound], for which, in data set [1] (water), the pKa amounted to 17.
